Test results reported in US4022791A (priority 1975, dated 1977).

Experiments:
mice [1] = assay: animal or person; assay type: in vivo, mouse; details: mouse, in vivo, ip
mice [2] = details: mouse, in vivo; for Tail Flick 2 hr (percentage of analgesia response) / Tail Flick .5 hr (percentage of analgesia response): ip
mice [3] = details: mouse, in vivo; for Hot Plate 2 hr (percentage of mice showing analgesia) / Hot Plate .5 hr (percentage of mice showing analgesia): ip
Rats = tested on: Rats; set-up: Rat Jump .5 hr (current at which the animal first jumps) / Rat Jump .5 hr, second value printed in parentheses / Rat Jump 2 hr (current at which the animal first jumps): unit not given here; details: in vivo; for Rat Jump 2 hr (current at which the animal first jumps) / Rat Jump .5 hr (current at which the animal first jumps): ip
Throughout, for Hot Plate .5 hr (percentage of mice showing analgesia): test concentration or dose not given here.
Throughout, for Hot Plate 2 hr (percentage of mice showing analgesia): test concentration or dose not given here.
Throughout, for Tail Flick .5 hr (percentage of analgesia response): test concentration or dose not given here.
Throughout, for Tail Flick 2 hr (percentage of analgesia response): test concentration or dose not given here.
Throughout, for Tail Pinch .5 hr (percentage of mice showing analgesia): test concentration or dose not given here.
Throughout, for Tail Pinch 2 hr (percentage of mice showing analgesia): test concentration or dose not given here.

## CCC(=O)OC1CCN(CC2=Cc3c(Cl)ccc(OC)c3CC2)CC1
Mice [1]
  Tail Pinch 2 hr (percentage of mice showing analgesia): 0
  Tail Pinch .5 hr (percentage of mice showing analgesia): 0
Mice [2]
  Tail Flick 2 hr (percentage of analgesia response): 0
  Tail Flick .5 hr (percentage of analgesia response): 20
Mice [3]
  Hot Plate 2 hr (percentage of mice showing analgesia): 0
  Hot Plate .5 hr (percentage of mice showing analgesia): 0
Rats
  Rat Jump 2 hr (current at which the animal first jumps): 1.2
  Rat Jump .5 hr (current at which the animal first jumps): 1.2

## COc1ccc(Cl)c2c1CCC(CN1CCC(O)CC1)=C2
Mice [1]
  Tail Pinch 2 hr (percentage of mice showing analgesia): 0
  Tail Pinch .5 hr (percentage of mice showing analgesia): 0
Mice [2]
  Tail Flick 2 hr (percentage of analgesia response): 0
  Tail Flick .5 hr (percentage of analgesia response): 0
Mice [3]
  Hot Plate 2 hr (percentage of mice showing analgesia): 0
  Hot Plate .5 hr (percentage of mice showing analgesia): 0
Rats
  Rat Jump 2 hr (current at which the animal first jumps): 1.2
  Rat Jump .5 hr (current at which the animal first jumps): 1.2

## COc1ccc(Cl)c2c1CCC(CN1CCC(C(N)=O)CC1)=C2
Mice [1]
  Tail Pinch 2 hr (percentage of mice showing analgesia): 0
  Tail Pinch .5 hr (percentage of mice showing analgesia): 0
Mice [2]
  Tail Flick 2 hr (percentage of analgesia response): 0
  Tail Flick .5 hr (percentage of analgesia response): 70
Mice [3]
  Hot Plate 2 hr (percentage of mice showing analgesia): 70
  Hot Plate .5 hr (percentage of mice showing analgesia): 90
Rats
  Rat Jump 2 hr (current at which the animal first jumps): 0.6
  Rat Jump .5 hr (current at which the animal first jumps): 0.6

## COc1ccc(Cl)c2c1CCC(CN1CCC(C(N)=O)(N3CCCCC3)CC1)=C2
Rats
  Rat Jump 2 hr (current at which the animal first jumps): 1.6
  Rat Jump .5 hr (current at which the animal first jumps): 1.2

## COc1ccc(Cl)c2c1CCC(CN1CCC(C)CC1)=C2
Mice [1]
  Tail Pinch 2 hr (percentage of mice showing analgesia): 0
  Tail Pinch .5 hr (percentage of mice showing analgesia): 0
Mice [2]
  Tail Flick 2 hr (percentage of analgesia response): 0
  Tail Flick .5 hr (percentage of analgesia response): 0
Mice [3]
  Hot Plate 2 hr (percentage of mice showing analgesia): 0
  Hot Plate .5 hr (percentage of mice showing analgesia): 10
Rats
  Rat Jump 2 hr (current at which the animal first jumps): 1.2
  Rat Jump .5 hr (current at which the animal first jumps): 1.2

## COc1ccc(Cl)c2c1CCC(CN1CCN(CCO)CC1)=C2
Mice [1]
  Tail Pinch 2 hr (percentage of mice showing analgesia): 0
  Tail Pinch .5 hr (percentage of mice showing analgesia): 40
Mice [2]
  Tail Flick 2 hr (percentage of analgesia response): 0
  Tail Flick .5 hr (percentage of analgesia response): 10
Mice [3]
  Hot Plate 2 hr (percentage of mice showing analgesia): 20
  Hot Plate .5 hr (percentage of mice showing analgesia): 50
Rats
  Rat Jump 2 hr (current at which the animal first jumps): 1.2
  Rat Jump .5 hr (current at which the animal first jumps): 1.2

## COc1ccc(Cl)c2c1CCC(CN1CCC(O)(c3ccccc3)CC1)=C2
Mice [1]
  Tail Pinch 2 hr (percentage of mice showing analgesia): 0
  Tail Pinch .5 hr (percentage of mice showing analgesia): 0
Mice [2]
  Tail Flick 2 hr (percentage of analgesia response): 0
  Tail Flick .5 hr (percentage of analgesia response): 30
Mice [3]
  Hot Plate 2 hr (percentage of mice showing analgesia): 0
  Hot Plate .5 hr (percentage of mice showing analgesia): 50
Rats
  Rat Jump 2 hr (current at which the animal first jumps): 1.2
  Rat Jump .5 hr (current at which the animal first jumps): 1.2

## COc1ccc(N2CCN(CC3=Cc4c(Cl)ccc(OC)c4CC3)CC2)cc1
Mice [1]
  Tail Pinch 2 hr (percentage of mice showing analgesia): 0
  Tail Pinch .5 hr (percentage of mice showing analgesia): 0
Mice [2]
  Tail Flick 2 hr (percentage of analgesia response): 0
  Tail Flick .5 hr (percentage of analgesia response): 0
Mice [3]
  Hot Plate 2 hr (percentage of mice showing analgesia): 0
  Hot Plate .5 hr (percentage of mice showing analgesia): 0
Rats
  Rat Jump 2 hr (current at which the animal first jumps): 1.2
  Rat Jump .5 hr (current at which the animal first jumps): 1.2

## CCOC(=O)N1CCN(CC2=Cc3c(Cl)ccc(OC)c3CC2)CC1
Mice [1]
  Tail Pinch 2 hr (percentage of mice showing analgesia): 0
  Tail Pinch .5 hr (percentage of mice showing analgesia): 0
Mice [2]
  Tail Flick 2 hr (percentage of analgesia response): 0
  Tail Flick .5 hr (percentage of analgesia response): 40
Mice [3]
  Hot Plate 2 hr (percentage of mice showing analgesia): 40
  Hot Plate .5 hr (percentage of mice showing analgesia): 70
Rats
  Rat Jump 2 hr (current at which the animal first jumps): 1.2
  Rat Jump .5 hr (current at which the animal first jumps): 1.2

## CNC(=O)C1CCN(CC2=Cc3c(Cl)ccc(OC)c3CC2)CC1
Mice [1]
  Tail Pinch 2 hr (percentage of mice showing analgesia): 0
  Tail Pinch .5 hr (percentage of mice showing analgesia): 0
Mice [2]
  Tail Flick 2 hr (percentage of analgesia response): 0
  Tail Flick .5 hr (percentage of analgesia response): 40
Mice [3]
  Hot Plate 2 hr (percentage of mice showing analgesia): 0
  Hot Plate .5 hr (percentage of mice showing analgesia): 60
Rats
  Rat Jump 2 hr (current at which the animal first jumps): 1.2
  Rat Jump .5 hr (current at which the animal first jumps): 1.2

## COc1ccc(Cl)c2c1CCC(CN1CCCC(C(N)=O)C1)=C2 (stereo not shown)
Mice [1]
  Tail Pinch 2 hr (percentage of mice showing analgesia): 0
  Tail Pinch .5 hr (percentage of mice showing analgesia): 0
Mice [2]
  Tail Flick 2 hr (percentage of analgesia response): 0
  Tail Flick .5 hr (percentage of analgesia response): 0
Mice [3]
  Hot Plate 2 hr (percentage of mice showing analgesia): 0
  Hot Plate .5 hr (percentage of mice showing analgesia): 0
Rats
  Rat Jump 2 hr (current at which the animal first jumps): 2.2
  Rat Jump .5 hr (current at which the animal first jumps): 1.6

## COc1ccc(Cl)c2c1CCC(CN1CCC(O)(c3ccc(Cl)cc3)CC1)=C2
Mice [1]
  Tail Pinch 2 hr (percentage of mice showing analgesia): 0
  Tail Pinch .5 hr (percentage of mice showing analgesia): 0
Mice [2]
  Tail Flick 2 hr (percentage of analgesia response): 0
  Tail Flick .5 hr (percentage of analgesia response): 0
Mice [3]
  Hot Plate 2 hr (percentage of mice showing analgesia): 0
  Hot Plate .5 hr (percentage of mice showing analgesia): 20
Rats
  Rat Jump 2 hr (current at which the animal first jumps): 1.6
  Rat Jump .5 hr (current at which the animal first jumps): 1.2

## COc1ccc(Cl)c2c1CCC(CN1CCN(C)CC1)=C2
Mice [1]
  Tail Pinch 2 hr (percentage of mice showing analgesia): 0
  Tail Pinch .5 hr (percentage of mice showing analgesia): 80
Mice [2]
  Tail Flick 2 hr (percentage of analgesia response): 0
  Tail Flick .5 hr (percentage of analgesia response): 30
Mice [3]
  Hot Plate 2 hr (percentage of mice showing analgesia): 0
  Hot Plate .5 hr (percentage of mice showing analgesia): 60
Rats
  Rat Jump 2 hr (current at which the animal first jumps): 1.2
  Rat Jump .5 hr (current at which the animal first jumps): 1.2

## COc1ccc(Cl)c2c1CCC(CN1CCN(c3ccc(Cl)cc3)CC1)=C2
Mice [1]
  Tail Pinch 2 hr (percentage of mice showing analgesia): 0
  Tail Pinch .5 hr (percentage of mice showing analgesia): 0
Mice [2]
  Tail Flick 2 hr (percentage of analgesia response): 0
  Tail Flick .5 hr (percentage of analgesia response): 0
Mice [3]
  Hot Plate 2 hr (percentage of mice showing analgesia): 0
  Hot Plate .5 hr (percentage of mice showing analgesia): 10
Rats
  Rat Jump 2 hr (current at which the animal first jumps): 1.2
  Rat Jump .5 hr (current at which the animal first jumps): 1.2

## CCOC1(c2ccccc2)CCN(CC2=Cc3c(Cl)ccc(OC)c3CC2)CC1
Mice [1]
  Tail Pinch 2 hr (percentage of mice showing analgesia): 20
  Tail Pinch .5 hr (percentage of mice showing analgesia): 0
Mice [2]
  Tail Flick 2 hr (percentage of analgesia response): 0
  Tail Flick .5 hr (percentage of analgesia response): 10
Mice [3]
  Hot Plate 2 hr (percentage of mice showing analgesia): 0
  Hot Plate .5 hr (percentage of mice showing analgesia): 50
Rats
  Rat Jump 2 hr (current at which the animal first jumps): 1.2
  Rat Jump .5 hr (current at which the animal first jumps): 1.2

## COc1ccc(Cl)c2c1CCC(CN1CCC(c3ccccc3)CC1)=C2
Mice [1]
  Tail Pinch 2 hr (percentage of mice showing analgesia): 0
  Tail Pinch .5 hr (percentage of mice showing analgesia): 0
Mice [2]
  Tail Flick 2 hr (percentage of analgesia response): 0
  Tail Flick .5 hr (percentage of analgesia response): 0
Mice [3]
  Hot Plate 2 hr (percentage of mice showing analgesia): 0
  Hot Plate .5 hr (percentage of mice showing analgesia): 30
Rats
  Rat Jump 2 hr (current at which the animal first jumps): 1.2
  Rat Jump .5 hr (current at which the animal first jumps): 1.2

## COc1ccc(Cl)c2c1CCC(CN1CCN(c3cccc(C(F)(F)F)c3)CC1)=C2
Mice [1]
  Tail Pinch 2 hr (percentage of mice showing analgesia): 0
  Tail Pinch .5 hr (percentage of mice showing analgesia): 0
Mice [2]
  Tail Flick 2 hr (percentage of analgesia response): 0
  Tail Flick .5 hr (percentage of analgesia response): 0
Mice [3]
  Hot Plate 2 hr (percentage of mice showing analgesia): 0
  Hot Plate .5 hr (percentage of mice showing analgesia): 10
Rats
  Rat Jump 2 hr (current at which the animal first jumps): 1.2
  Rat Jump .5 hr (current at which the animal first jumps): 1.2

## COc1ccc(Cl)c2c1CCC(CN(C)CCN1CCCC1)=C2
Mice [1]
  Tail Pinch 2 hr (percentage of mice showing analgesia): 0
  Tail Pinch .5 hr (percentage of mice showing analgesia): 0
Mice [2]
  Tail Flick 2 hr (percentage of analgesia response): 0
  Tail Flick .5 hr (percentage of analgesia response): 0
Mice [3]
  Hot Plate 2 hr (percentage of mice showing analgesia): 0
  Hot Plate .5 hr (percentage of mice showing analgesia): 0
Rats
  Rat Jump 2 hr (current at which the animal first jumps): 1.2
  Rat Jump .5 hr (current at which the animal first jumps): 1.2

## COc1ccc(Cl)c2c1CCC(CN1CC=C(c3ccc(Cl)cc3)CC1)=C2
Mice [1]
  Tail Pinch 2 hr (percentage of mice showing analgesia): 0
  Tail Pinch .5 hr (percentage of mice showing analgesia): 0
Mice [2]
  Tail Flick 2 hr (percentage of analgesia response): 0
  Tail Flick .5 hr (percentage of analgesia response): 0
Mice [3]
  Hot Plate 2 hr (percentage of mice showing analgesia): 0
  Hot Plate .5 hr (percentage of mice showing analgesia): 0
Rats
  Rat Jump 2 hr (current at which the animal first jumps): 1.2
  Rat Jump .5 hr (current at which the animal first jumps): 1.2

## COc1ccc(Cl)c2c1CCC(CN1CCSC1)=C2
Mice [1]
  Tail Pinch 2 hr (percentage of mice showing analgesia): 0
  Tail Pinch .5 hr (percentage of mice showing analgesia): 0
Mice [2]
  Tail Flick 2 hr (percentage of analgesia response): 0
  Tail Flick .5 hr (percentage of analgesia response): 0
Mice [3]
  Hot Plate 2 hr (percentage of mice showing analgesia): 0
  Hot Plate .5 hr (percentage of mice showing analgesia): 0
Rats
  Rat Jump 2 hr (current at which the animal first jumps): 1.2
  Rat Jump .5 hr (current at which the animal first jumps): 1.2

## COc1ccc(Cl)c2c1CCC(CN1CCC(C(=O)N(C)C)CC1)=C2
Rats
  Rat Jump 2 hr (current at which the animal first jumps): 1.2
  Rat Jump .5 hr (current at which the animal first jumps): 1.2

## COc1ccc(Cl)c2c1CCC(CN1CCC(C(=O)N3CCOCC3)CC1)=C2
Rats
  Rat Jump 2 hr (current at which the animal first jumps): 1.2
  Rat Jump .5 hr (current at which the animal first jumps): 1.2

## CN1CC[C@]23c4c5ccc(O)c4O[C@H]2[C@@H](O)C=C[C@H]3[C@H]1C5.O=S(=O)(O)O [Morphine Sulfate, reference compound]
Mice [2]
  Tail Flick 2 hr (percentage of analgesia response): 100
  Tail Flick .5 hr (percentage of analgesia response): 100
Rats
  Rat Jump .5 hr (current at which the animal first jumps): > 2.2

## COc1ccc(Cl)c2c1CCC(CN(C)C)=C2 [N(CH3)2]
Mice [1]
  Tail Pinch 2 hr (percentage of mice showing analgesia): 0
  Tail Pinch .5 hr (percentage of mice showing analgesia): 0
Mice [2]
  Tail Flick 2 hr (percentage of analgesia response): 0
  Tail Flick .5 hr (percentage of analgesia response): 0
Mice [3]
  Hot Plate 2 hr (percentage of mice showing analgesia): 0
  Hot Plate .5 hr (percentage of mice showing analgesia): 0
Rats
  Rat Jump 2 hr (current at which the animal first jumps): 0.6
  Rat Jump .5 hr (current at which the animal first jumps): 1.2

## COc1ccc(Cl)c2c1CCC(CN1CCCC1)=C2C [reference compound]
Mice [2]
  activity in the Tail Flick test: marginal activity
Mice [3]
  activity in the Hot Plate test: marginal activity
Rats
  activity in the Rat Jump Test: inactive
